Assay results as given in the METLIN SMRT retention time set (Domingo-Almenara et al. 2019).

Experiment: gradient 5% acetonitrile 3 min, to 50% in 2 min, to 85% in 15 min, held 3 min, 100 µL/min
Details: column: Zorbax Extend-C18 2.1 x 50 mm; eluents: water / acetonitrile, 0.1% formic acid
How it was run: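 Each retention time is based on an adduct peak selected computationally and verified by manual inspection. Measurements used HPLC–quadrupole time-of-flight mass spectrometry in positive and negative ionization mode on mixtures of ~100 pure standards. Chromatography ran on a Zorbax Extend-C18 column (2.1 × 50 mm, 1.8 μm) at 100 μL/min with water and acetonitrile, each containing 0.1% formic acid, and dead and dwell volumes of 40 μL and 900 μL.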

Row | RP-LC retention time | SMILES
1 | 698 s | CCCC(=O)N1CCc2c([nH]c3ccccc23)C1c1ccc(F)cc1 (stereo not given)
2 | 720 s | CN(C)C(=O)c1csc(S(=O)(=O)N2CCC(C(=O)NC3CCCCC3)CC2)c1
3 | 974 s | CC1CCN(C(=O)c2nc(CCS(=O)(=O)c3ccc(Cl)cc3)no2)CC1
4 | 702 s | CCN1C(=O)c2cccnc2Sc2cc(CNC(=O)c3ccoc3)ccc21
5 | 596 s | O=C1Nc2ccccc2SC1C(=O)N1CCC(C(=O)N2CCN(c3ccccn3)CC2)CC1 (stereo not given)
6 | 623 s | COc1ccc2c(c1)C(OC(C)C)=C(C(N)=O)S2=O (stereo not given)
7 | 677 s | Cc1cc(C(=O)N2CCCC2)c2cc(Br)ccc2n1
8 | 624 s | Nc1nc(N2CCN(C3CCCCC3)CC2)ncc1C(=O)Nc1ccccc1
9 | 1080 s | COc1cc(OC)cc(-c2nnc(Cc3nc(-c4ccc(C)cc4)no3)o2)c1
10 | 703 s | O=C(Nc1ccccc1)Nc1ccc2nnc(C3CC3)n2c1
11 | 1120 s | CSc1ccccc1NC(=O)c1ccc(COc2ccc(C)cc2)o1
12 | 946 s | CCCN(CC1CCOC1)S(=O)(=O)c1ccccc1C(F)(F)F (stereo not given)
13 | 758 s | COCC(=O)Nc1ccc2c(c1)N(C(=O)c1cccs1)CCC2
14 | 1110 s | CC(C)(C)c1noc(-c2ccnc(-n3cnc(C(=O)NCC4CC4)c3)c2)n1
15 | 777 s | COc1ccccc1Cc1noc(C2CN(C(=O)c3cncc(Br)c3)C2)n1
16 | 716 s | CN(C)c1cnc(-n2cc(NC(=O)c3ccc(C#N)cc3)cn2)nc1
17 | 1020 s | COc1ccc(-c2ncc3c(n2)CCN(C(=O)Nc2ccc(F)c(Cl)c2)C3)cc1
18 | 1240 s | CCCN1CCCCc2cc(C(=O)N(CC)C(C)C)sc21
19 | 1140 s | CCc1ccc(-c2noc(Cn3c(=O)n(-c4ccccc4C)c(=O)c4sccc43)n2)cc1
20 | 709 s | Cc1ccc(S(=O)(=O)N2CCC3(CC2)NCCN=C3NCc2ccccc2F)cc1
21 | 927 s | Cn1nc2c(c1NC(=O)c1cc(C(F)(F)F)cc(C(F)(F)F)c1)CCC2
22 | 1020 s | Cn1nc(-c2nnc(-c3ccc(F)cc3)o2)c2c1CCN(S(=O)(=O)c1ccc(Cl)cc1)C2

Row | RP-LC retention time | SMILES
23 | 1040 s | Cn1cc(-c2nc(C(=O)NCc3ccc(C(F)(F)F)cc3)cs2)c2cccnc21
24 | 739 s | O=C(O)CCC1CCN(S(=O)(=O)c2ccccc2)CC1
25 | 886 s | COc1ccc(OC)c(N2CC(c3nc(-c4ccc5c(c4)OCO5)no3)CC2=O)c1 (stereo not given)
26 | 1010 s | COCCn1c(SCc2ccccc2Cl)nc2cc(C(=O)NC(C)C)ccc2c1=O
27 | 788 s | Cn1nc(-c2nc(C3CC3)no2)c2c1CCN(C(=O)NCc1ccccc1)C2
28 | 1050 s | CCOc1cccc(-c2noc(CN3C(=O)COc4ccccc43)n2)c1
29 | 1110 s | CCCCOc1ccc(C(=O)Nc2cc(OC)ccc2OC)cc1
30 | 973 s | CCOC(=O)c1c(C)c(C(=O)CN(CC2CCCO2)C(=O)c2ccc(F)cc2)c(C)n1CC (stereo not given)
31 | 935 s | CCc1nn2c(CNS(=O)(=O)c3cccc(F)c3)c(-c3ccccc3)nc2s1
32 | 711 s | CCc1ccc(NC(=O)N2CCC(c3nc4cccnc4n3C)C2)cc1 (stereo not given)
33 | 606 s | CN1CCc2cccc3c2C1Cc1ccc(O)c(O)c1-3 (stereo not given)
34 | 718 s | COc1ccccc1N1CCN(C(=O)C2CCN(c3c(C)n(C)c(=O)n(C)c3=O)CC2)CC1
35 | 729 s | COC(=O)CSCC(=O)Nc1cc(C)ccc1C
36 | 869 s | CC1(C)C(=O)N(CC(=O)Nc2ccccc2F)c2ccccc21
37 | 1070 s | Cc1ccc(-c2nnc(Cc3nc(-c4ccc5c(c4)OCO5)no3)o2)cc1C
38 | 1120 s | CCCn1nnc2cc(-c3noc(COc4ccc(Cl)cc4)n3)ccc21
39 | 787 s | COC(=O)C1=CN(c2cccc(C#N)c2)c2ccc(F)cc2S1(=O)=O
40 | 974 s | Cc1cc(C)c(S(=O)(=O)N2CC(c3nc(-c4ccncc4)no3)C2)cc1C
41 | 608 s | Cc1ccc(CNC(=O)C2(C)Cn3nc(C(=O)NCCN4CCCC4)cc3C(=O)N2C)cc1 (stereo not given)
42 | 767 s | Cc1nnc(-c2cc(C)n(CC(=O)Nc3cccc(C)c3C)c2C)o1
43 | 558 s | Cc1nnc2n1CCN(C(=O)c1n[nH]c3ccccc13)C2
44 | 763 s | CCC(C(=O)NCCOC)n1nc(C)c2nn(-c3ccccc3)c(C)c2c1=O (stereo not given)

Row | RP-LC retention time | SMILES
45 | 654 s | COCC1CN(S(=O)(=O)Cc2ccc(C)c(C)c2)CC12CCNCC2 (stereo not given)
46 | 875 s | COc1ccc(NC(=O)N2CCCC2c2nc(-c3cccc(OC)c3)no2)cc1 (stereo not given)
47 | 727 s | Cc1cc(NC(=O)Cn2ccn3nc(-c4ccc(F)cc4)c(CO)c3c2=O)no1
48 | 1050 s | CCCOc1ccc(C(=O)Nc2nnc(SCc3nnc(-c4ccccc4)o3)s2)cc1
49 | 1010 s | Cc1ccccc1CNS(=O)(=O)c1ccc2c(c1)C(=O)N(C)c1ncccc1O2
50 | 636 s | O=C(c1ccsc1)N1CCC(n2c(C3CCCC3)nc3cccnc32)C1 (stereo not given)
51 | 679 s | COCCCNC(=O)N1CCCN(C2=NS(=O)(=O)C(c3ccccc3)=C2C)CC1
52 | 620 s | CC(C)C(NC(=O)c1cccc(C#N)c1)C(=O)N1CCN(c2ccccn2)CC1 (stereo not given)
53 | 587 s | O=C(C1CCN(c2cnc(N3CCCC3)nc2)CC1)N1CCOCC1
54 | 1300 s | Cc1nn(-c2ccccc2)c2nc(N3CCCC(C(=O)Nc4cccc(Br)c4)C3)sc12 (stereo not given)
55 | 763 s | CC(=O)Nc1cccc(-c2nc(-c3cccc(-c4ccn[nH]4)c3)no2)c1
56 | 616 s | CCOC(=O)CNC(=O)N1CCN(Cc2nc3cc(C)ccc3o2)CC1
57 | 728 s | CC(C)c1ccc(OCC(=O)Nc2nnc(C3CC(=O)N(c4ccccc4)C3)o2)cc1 (stereo not given)
58 | 638 s | Cc1ccc(N2C(=O)CCS2(=O)=O)cc1S(=O)(=O)N1CCC(C(N)=O)CC1
59 | 995 s | CC(C)Cn1cc(CCNS(=O)(=O)c2ccc(Br)s2)c2cccnc21
60 | 962 s | CCOc1ccc(-c2cn3ccn(-c4ccc(Cl)cc4)c(=O)c3n2)cc1
61 | 1160 s | O=C(NC1CCc2ccccc21)C1CCN(c2ncccc2-c2nc(-c3cccc(F)c3)no2)CC1 (stereo not given)
62 | 736 s | Cc1nnc(C2CCCN(C(=O)c3nc4ccccc4s3)C2)s1 (stereo not given)
63 | 1200 s | CCOc1ccc(-c2noc(Cc3nc(-c4ccc5c(c4)OCO5)cs3)n2)cc1
64 | 658 s | Cc1ncn(CC(=O)Nc2cc(F)ccc2F)c(=O)c1C
65 | 583 s | Cc1[nH]c(=O)[nH]c(=O)c1S(=O)(=O)N1CCCC1
66 | 1330 s | CC(C)(C)c1csc(-c2csc(S(=O)(=O)Nc3ccc(Br)cc3F)c2)n1

Row | RP-LC retention time | SMILES
67 | 684 s | CCCNc1cc(N2CCC(CCC(=O)NCc3cc(F)ccc3F)CC2)ncn1
68 | 808 s | O=C(NCc1ccco1)c1c2c(nc3ccccc13)C(=O)N(C1CCCCC1)C2
69 | 683 s | CN(C)c1ccc(C(CNC(=O)COc2ccc(Cl)cc2)N(C)C)cc1 (stereo not given)
70 | 707 s | CCc1nnc2ccc(S(=O)(=O)Nc3ccc(F)cc3)cn12
71 | 740 s | CCOC1CCN(C(=O)NC2CCCCC2)CC1
72 | 648 s | O=C(CN1CCN(Cc2cccc(Cl)c2)C1=O)N1CCN(C2CCCCC2)CC1
73 | 986 s | O=C([C@@H]1C[C@H](F)CN1S(=O)(=O)Cc1ccccc1Cl)N1CCc2ccccc2C1
74 | 585 s | Cc1ccc2cc(CN3C[C@@H](CO)[C@H](c4ccccn4)C3)c(=O)[nH]c2c1
75 | 616 s | CCc1nc(-c2ccnc(N3CCCC3)c2)no1
76 | 622 s | Cn1cccc1C(=O)N1CCc2nn(CC#N)c(=O)n2CC1
77 | 826 s | COc1cccc(-n2ccc(=O)c(-c3nc(-c4cccc(OC)c4OC)no3)n2)c1
78 | 616 s | NC(=O)c1nnn(Cc2cccc([N+](=O)[O-])c2)c1N
79 | 612 s | O=C(O)c1nnn(-c2ccc3c(c2)OCO3)c1-c1ccncc1
80 | 959 s | CCCn1cc(C(=O)NCCOC)c(S(=O)(=O)N2CCN(c3ccccc3OCC)CC2)n1
81 | 805 s | CC1(C(=O)NCc2ccc(F)cc2)CN(S(C)(=O)=O)CC(=O)N1c1cccc(Cl)c1 (stereo not given)
82 | 754 s | Cn1cc(-c2nnc(SCC(=O)N3CCc4ccccc4C3)n2C)c(-c2ccccc2)n1
83 | 641 s | CCCNS(=O)(=O)c1cc2c(cc1C)CCN2C(C)=O
84 | 648 s | CC(C)CC(NC(=O)[C@H]1CCCN1C(=O)OCc1ccccc1)C(=O)NCC(=O)NO (stereo not given in full)
85 | 562 s | CCOC(=O)c1ccc(N2CCCC2)nn1
86 | 1380 s | Cc1nn(-c2nc(-c3ccc(Cl)cc3)cs2)c(C)c1CC(=O)Nc1cccc(C(F)(F)F)c1
87 | 1070 s | COc1cccc(-c2nc(C3CCN(S(=O)(=O)c4ccccc4)CC3)no2)c1

Row | SMILES | RP-LC retention time
88 | CCn1cc(C(=O)Nc2cc(C)ccc2C)c2cccnc21 | 854 s
89 | Cc1ccc(-n2cc(C3=CCN(CC(=O)N4CCN(c5ccccn5)CC4)CC3)cn2)cc1C | 596 s
90 | COc1ccccc1CCC(=O)N1CCC2(CC1)NCc1ccccc1-n1ccnc12 | 623 s
